Non-standard residues stand in square brackets, D forms with d. Residues, ends and D or L forms follow the SMILES beside them. dTic = O=C(O)[C@H]1Cc2ccccc2CN1; Sar = CNCC(=O)O
Target: T1, B2 receptor (Oryctolagus cuniculus, UniProt Q28642)
T1 sequence (Q28642 1-367): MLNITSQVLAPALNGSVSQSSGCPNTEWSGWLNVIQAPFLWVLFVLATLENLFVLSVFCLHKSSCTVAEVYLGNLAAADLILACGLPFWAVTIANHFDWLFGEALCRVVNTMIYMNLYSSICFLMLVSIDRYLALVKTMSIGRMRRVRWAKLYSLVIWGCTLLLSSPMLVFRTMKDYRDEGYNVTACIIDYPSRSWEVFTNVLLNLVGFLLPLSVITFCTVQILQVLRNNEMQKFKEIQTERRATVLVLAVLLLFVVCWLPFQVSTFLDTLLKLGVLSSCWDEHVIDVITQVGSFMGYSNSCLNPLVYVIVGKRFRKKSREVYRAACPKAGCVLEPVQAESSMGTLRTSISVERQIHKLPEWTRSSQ
Conditions: vs BK; captopril 1 μmol/L; Inactive = no detectable antagonistic effect at ≦ 10 μg/ml

Row | Compound | Rb.J.V. pA2
1 | CC(C)C[C@H](NC(=O)[C@H]1Cc2ccccc2CN1C(=O)[C@H](CO)NC(=O)[C@H](Cc1ccccc1)NC(=O)CNC(=O)[C@@H]1CCCN1C(=O)[C@@H]1CCCN1C(=O)[C@@H](N)CCCNC(=N)N)C(=O)O [Compound 8, (D-Tic^7, Leu^8)desArg^9BK] (H-RPPGFS[dTic]L-OH; N-terminus and C-terminus assumed) | Inactive
2 | CNCC(=O)N[C@@H](CCCNC(=N)N)C(=O)N1CCC[C@H]1C(=O)N1CCC[C@H]1C(=O)NCC(=O)N[C@@H](Cc1ccccc1)C(=O)N[C@@H](CO)C(=O)N1Cc2ccccc2C[C@@H]1C(=O)N[C@@H](CC(C)C)C(=O)O [Compound 9, Sar(D-Tic^7, Leu^8)desArg^9BK] (H-[Sar]RPPGFS[dTic]L-OH; N-terminus and C-terminus assumed) | Inactive
3 | CC(=O)N[C@@H](Cc1ccc(O)cc1)C(=O)NCCCCCC(=O)N[C@@H](CCCCN)C(=O)N[C@@H](CCCNC(=N)N)C(=O)N1CCC[C@H]1C(=O)N1CCC[C@H]1C(=O)NCC(=O)N[C@@H](Cc1ccccc1)C(=O)N[C@@H](CO)C(=O)N1CCC[C@H]1C(=O)N[C@@H](CC(C)C)C(=O)O [Compound 27, AcTyrεAhxLys(Leu^8)desArg^9BK] | Inactive
4 | CNCC(=O)N[C@@H](Cc1ccc(O)cc1)C(=O)NCCCCCC(=O)N[C@@H](CCCCN)C(=O)N[C@@H](CCCNC(=N)N)C(=O)N1CCC[C@H]1C(=O)N1CCC[C@H]1C(=O)NCC(=O)N[C@@H](Cc1ccccc1)C(=O)N[C@@H](CO)C(=O)N1CCC[C@H]1C(=O)N[C@@H](CC(C)C)C(=O)O [Compound 28, SarTyrεAhxLys(Leu^8)desArg^9BK] | Inactive
